The target in test [1] is Serine/threonine-protein kinase 16 (Homo sapiens, UniProt O75716). Put plainly: Selectivity interaction (KinomeScan (DiscoverX)) EUB0001619a STK16. The settings on record: at 1 µM.
The target of test [2] is Proto-oncogene tyrosine-protein kinase Src (Homo sapiens, UniProt P12931). In words: Selectivity interaction (KinomeScan (DiscoverX)) EUB0001619a SRC. The settings on record: at 1 µM.
For test [3], the target named is Ribosomal protein S6 kinase alpha-4 (Homo sapiens) (UniProt O75676). Put plainly: Selectivity interaction (KinomeScan (DiscoverX)) EUB0001619a RPS6KA4. The settings on record: at 1 µM.
Test [4] has as its target Fibroblast growth factor receptor 4 (Homo sapiens, UniProt P22455). In words: Selectivity interaction (KinomeScan (DiscoverX)) EUB0000695a FGFR4. The settings on record: at 100 nM.
Test [5] concerns the target AP2-associated protein kinase 1 (Homo sapiens, UniProt Q2M2I8). Put plainly: Selectivity interaction (KinomeScan (DiscoverX)) EUB0000607a AAK1. The settings on record: at 10 µM.
In test [6] the target is Cyclin-dependent kinase 15 (Homo sapiens) (UniProt Q96Q40). In words: Selectivity interaction (KinomeScan (DiscoverX)) EUB0000607a CDK15. The settings on record: at 10 µM.
In test [7] the target is T1, Serine/threonine-protein kinase ICK (Homo sapiens) (UniProt Q9UPZ9).
T1 sequence (whole entry): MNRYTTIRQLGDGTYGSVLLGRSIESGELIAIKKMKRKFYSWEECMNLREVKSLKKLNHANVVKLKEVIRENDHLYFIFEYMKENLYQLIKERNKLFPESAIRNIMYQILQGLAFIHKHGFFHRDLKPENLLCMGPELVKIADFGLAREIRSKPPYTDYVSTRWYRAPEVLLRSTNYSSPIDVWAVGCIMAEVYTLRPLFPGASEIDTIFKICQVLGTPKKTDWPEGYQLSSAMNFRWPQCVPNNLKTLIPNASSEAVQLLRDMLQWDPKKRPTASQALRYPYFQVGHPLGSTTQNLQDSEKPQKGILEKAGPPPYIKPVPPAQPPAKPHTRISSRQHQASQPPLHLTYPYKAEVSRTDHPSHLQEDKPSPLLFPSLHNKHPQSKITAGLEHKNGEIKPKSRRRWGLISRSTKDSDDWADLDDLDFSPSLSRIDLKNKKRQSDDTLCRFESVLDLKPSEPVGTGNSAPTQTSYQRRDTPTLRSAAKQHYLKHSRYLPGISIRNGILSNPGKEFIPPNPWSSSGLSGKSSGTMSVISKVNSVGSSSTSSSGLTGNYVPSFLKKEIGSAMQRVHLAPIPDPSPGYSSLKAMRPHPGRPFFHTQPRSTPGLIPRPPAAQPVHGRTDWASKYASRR
The settings on record: at 10 µM.

For test [8], the target named is Death-associated protein kinase 1 (Homo sapiens, UniProt P53355). In words: Selectivity interaction (Kinase screening (Nanosyn)) EUB0000604a DAPK1.
The target of test [9] is Macrophage colony-stimulating factor 1 receptor (Homo sapiens) (UniProt P07333). Put plainly: Selectivity interaction (Kinase screening (Nanosyn)) EUB0000604a CSF1R.
The target of test [10] is T2, Activin receptor type-1B (Homo sapiens) (UniProt P36896).
T2 sequence (whole entry): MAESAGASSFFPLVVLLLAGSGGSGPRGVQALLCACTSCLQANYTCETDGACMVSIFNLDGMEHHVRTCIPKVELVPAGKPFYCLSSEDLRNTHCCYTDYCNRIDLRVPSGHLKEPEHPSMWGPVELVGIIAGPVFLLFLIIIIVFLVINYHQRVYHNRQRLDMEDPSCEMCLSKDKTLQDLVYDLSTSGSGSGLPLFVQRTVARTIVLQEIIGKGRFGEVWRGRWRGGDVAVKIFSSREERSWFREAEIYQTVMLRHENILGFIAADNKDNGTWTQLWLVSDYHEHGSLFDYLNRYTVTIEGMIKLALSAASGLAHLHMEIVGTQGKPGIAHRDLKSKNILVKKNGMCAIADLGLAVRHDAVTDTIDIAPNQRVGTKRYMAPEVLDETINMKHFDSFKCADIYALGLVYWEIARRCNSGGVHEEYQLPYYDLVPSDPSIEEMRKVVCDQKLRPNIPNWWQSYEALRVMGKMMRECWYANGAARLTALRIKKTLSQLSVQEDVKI
In words: Selectivity interaction (Kinase panel (Invitrogen)) EUB0000639a ACVR1B. The settings on record: at 200 nM.

Test [11] deals with Histone-lysine N-methyltransferase ASH1L (Homo sapiens) (UniProt Q9NR48). The settings on record: at 1 µM.
The target in test [12] is Receptor tyrosine-protein kinase erbB-2 (Homo sapiens, UniProt P04626). In words: Selectivity interaction (KinomeScan (DiscoverX)) EUB0000045b ERBB2.
Test [13] concerns the target T3, Mitogen-activated protein kinase kinase kinase 7 (Homo sapiens) (UniProt O43318).
T3 sequence (whole entry): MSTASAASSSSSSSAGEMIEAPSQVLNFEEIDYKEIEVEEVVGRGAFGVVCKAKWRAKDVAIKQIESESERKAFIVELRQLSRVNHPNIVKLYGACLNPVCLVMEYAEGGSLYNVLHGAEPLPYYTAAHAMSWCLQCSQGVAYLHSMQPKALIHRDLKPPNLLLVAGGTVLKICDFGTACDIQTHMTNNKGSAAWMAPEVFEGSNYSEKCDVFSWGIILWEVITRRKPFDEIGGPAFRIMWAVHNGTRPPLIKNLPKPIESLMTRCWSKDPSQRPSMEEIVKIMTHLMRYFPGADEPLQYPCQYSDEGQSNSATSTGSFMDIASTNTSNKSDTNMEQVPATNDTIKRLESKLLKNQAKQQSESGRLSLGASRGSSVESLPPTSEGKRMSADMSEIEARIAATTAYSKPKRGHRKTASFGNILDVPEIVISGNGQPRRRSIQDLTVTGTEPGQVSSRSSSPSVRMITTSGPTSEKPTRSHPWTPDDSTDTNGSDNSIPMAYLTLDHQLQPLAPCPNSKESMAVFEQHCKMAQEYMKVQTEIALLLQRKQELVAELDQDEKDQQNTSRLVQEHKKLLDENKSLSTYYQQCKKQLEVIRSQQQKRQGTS
In words: Selectivity interaction (KinomeScan (DiscoverX)) EUB0001049a MAP3K7. The settings on record: at 1 µM.

For test [14], the target named is RAC-alpha serine/threonine-protein kinase (Homo sapiens, UniProt P31749). In words: Selectivity interaction (Kinase panel (33PanQinase(R) Activity Assay)) EUB0000877a AKT1.

Structures are written as SMILES.

Chain of Receptor tyrosine-protein kinase erbB-2 (P04626 whole entry): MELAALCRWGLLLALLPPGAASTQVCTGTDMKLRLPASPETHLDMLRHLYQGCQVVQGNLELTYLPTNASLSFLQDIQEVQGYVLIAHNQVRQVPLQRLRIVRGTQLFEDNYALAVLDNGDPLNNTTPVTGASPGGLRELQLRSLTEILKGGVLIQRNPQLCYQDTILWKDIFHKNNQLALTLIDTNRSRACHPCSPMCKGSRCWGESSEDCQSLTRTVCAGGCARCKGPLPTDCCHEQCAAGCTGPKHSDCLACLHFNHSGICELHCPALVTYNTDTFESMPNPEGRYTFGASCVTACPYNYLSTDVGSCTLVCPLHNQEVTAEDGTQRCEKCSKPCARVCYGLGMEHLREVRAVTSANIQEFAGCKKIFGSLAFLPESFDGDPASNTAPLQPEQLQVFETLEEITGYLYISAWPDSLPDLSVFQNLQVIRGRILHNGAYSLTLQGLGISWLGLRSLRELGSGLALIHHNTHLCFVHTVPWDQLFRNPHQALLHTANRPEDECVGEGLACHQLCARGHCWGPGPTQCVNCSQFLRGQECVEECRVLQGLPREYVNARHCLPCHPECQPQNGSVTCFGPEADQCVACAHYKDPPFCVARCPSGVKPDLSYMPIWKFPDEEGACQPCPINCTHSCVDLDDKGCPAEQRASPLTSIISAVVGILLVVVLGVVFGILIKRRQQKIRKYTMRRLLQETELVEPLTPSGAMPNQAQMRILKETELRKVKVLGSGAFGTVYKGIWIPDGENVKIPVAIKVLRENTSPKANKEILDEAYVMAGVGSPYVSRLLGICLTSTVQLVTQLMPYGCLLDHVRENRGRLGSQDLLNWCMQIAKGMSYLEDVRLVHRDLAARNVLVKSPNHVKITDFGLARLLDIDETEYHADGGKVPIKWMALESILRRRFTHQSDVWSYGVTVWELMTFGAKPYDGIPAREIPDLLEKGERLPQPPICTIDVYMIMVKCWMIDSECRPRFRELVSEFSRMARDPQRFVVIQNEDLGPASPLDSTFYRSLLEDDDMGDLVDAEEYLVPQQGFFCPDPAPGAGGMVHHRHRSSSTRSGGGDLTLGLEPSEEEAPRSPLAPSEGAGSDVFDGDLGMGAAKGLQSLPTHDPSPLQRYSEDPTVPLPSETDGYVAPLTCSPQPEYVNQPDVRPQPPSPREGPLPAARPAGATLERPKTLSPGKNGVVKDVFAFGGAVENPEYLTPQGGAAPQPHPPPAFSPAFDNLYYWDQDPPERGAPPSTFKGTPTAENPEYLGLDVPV
Chain of RAC-alpha serine/threonine-protein kinase (P31749 whole entry): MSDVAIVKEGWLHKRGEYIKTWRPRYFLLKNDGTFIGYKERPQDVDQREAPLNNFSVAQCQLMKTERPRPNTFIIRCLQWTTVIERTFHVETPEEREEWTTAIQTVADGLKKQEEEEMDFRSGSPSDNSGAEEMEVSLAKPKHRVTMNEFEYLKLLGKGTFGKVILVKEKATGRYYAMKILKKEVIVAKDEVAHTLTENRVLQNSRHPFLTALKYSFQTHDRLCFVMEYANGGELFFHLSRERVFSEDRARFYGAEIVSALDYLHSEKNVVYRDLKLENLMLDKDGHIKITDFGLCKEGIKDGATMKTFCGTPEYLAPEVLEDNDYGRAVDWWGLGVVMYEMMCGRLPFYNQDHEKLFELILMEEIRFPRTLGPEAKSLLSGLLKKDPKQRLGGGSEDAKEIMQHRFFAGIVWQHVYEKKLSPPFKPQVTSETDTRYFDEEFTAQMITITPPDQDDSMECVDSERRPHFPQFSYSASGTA
Chain of AP2-associated protein kinase 1 (Q2M2I8 whole entry, looked up): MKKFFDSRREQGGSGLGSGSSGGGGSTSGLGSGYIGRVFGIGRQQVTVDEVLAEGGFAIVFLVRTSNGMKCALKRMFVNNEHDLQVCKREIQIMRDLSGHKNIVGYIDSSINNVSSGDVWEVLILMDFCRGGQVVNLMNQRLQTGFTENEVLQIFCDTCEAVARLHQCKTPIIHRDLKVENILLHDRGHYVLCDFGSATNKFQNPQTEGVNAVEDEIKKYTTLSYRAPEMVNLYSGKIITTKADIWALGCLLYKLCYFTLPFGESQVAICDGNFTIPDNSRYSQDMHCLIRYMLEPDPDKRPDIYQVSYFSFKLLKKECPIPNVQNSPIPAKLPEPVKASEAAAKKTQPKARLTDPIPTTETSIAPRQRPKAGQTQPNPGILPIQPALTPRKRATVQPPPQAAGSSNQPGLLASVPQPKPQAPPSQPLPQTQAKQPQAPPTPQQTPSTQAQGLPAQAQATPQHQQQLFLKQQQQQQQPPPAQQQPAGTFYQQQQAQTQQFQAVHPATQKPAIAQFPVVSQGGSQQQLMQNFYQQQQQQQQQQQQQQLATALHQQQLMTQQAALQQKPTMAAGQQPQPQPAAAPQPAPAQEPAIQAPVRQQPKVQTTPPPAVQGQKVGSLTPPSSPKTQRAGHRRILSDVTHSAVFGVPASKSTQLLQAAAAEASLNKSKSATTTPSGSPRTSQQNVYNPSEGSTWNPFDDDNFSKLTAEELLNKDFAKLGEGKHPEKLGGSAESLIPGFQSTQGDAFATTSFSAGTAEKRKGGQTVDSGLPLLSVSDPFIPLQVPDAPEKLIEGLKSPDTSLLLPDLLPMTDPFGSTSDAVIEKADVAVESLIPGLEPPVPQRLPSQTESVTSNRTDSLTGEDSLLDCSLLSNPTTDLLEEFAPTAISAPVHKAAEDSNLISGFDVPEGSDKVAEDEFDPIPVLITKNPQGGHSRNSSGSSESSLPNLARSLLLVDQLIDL
Chain of Proto-oncogene tyrosine-protein kinase Src (P12931 2-536 limits assumed): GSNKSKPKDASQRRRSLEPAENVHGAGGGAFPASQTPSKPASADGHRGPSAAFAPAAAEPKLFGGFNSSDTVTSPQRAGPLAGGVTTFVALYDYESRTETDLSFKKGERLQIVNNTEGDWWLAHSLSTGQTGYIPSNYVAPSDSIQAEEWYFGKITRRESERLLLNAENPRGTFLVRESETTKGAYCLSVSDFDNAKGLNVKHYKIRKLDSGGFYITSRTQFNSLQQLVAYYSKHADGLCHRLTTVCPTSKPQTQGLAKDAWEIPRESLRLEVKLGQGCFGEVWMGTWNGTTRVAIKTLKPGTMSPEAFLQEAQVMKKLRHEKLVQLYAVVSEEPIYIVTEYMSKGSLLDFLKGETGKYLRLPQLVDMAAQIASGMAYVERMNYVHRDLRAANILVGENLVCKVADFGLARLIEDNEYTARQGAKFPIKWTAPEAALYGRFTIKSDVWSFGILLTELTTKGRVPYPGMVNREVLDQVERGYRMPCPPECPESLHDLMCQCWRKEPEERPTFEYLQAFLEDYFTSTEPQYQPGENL
Chain of Cyclin-dependent kinase 15 (Homo sapiens) (Q96Q40 whole entry): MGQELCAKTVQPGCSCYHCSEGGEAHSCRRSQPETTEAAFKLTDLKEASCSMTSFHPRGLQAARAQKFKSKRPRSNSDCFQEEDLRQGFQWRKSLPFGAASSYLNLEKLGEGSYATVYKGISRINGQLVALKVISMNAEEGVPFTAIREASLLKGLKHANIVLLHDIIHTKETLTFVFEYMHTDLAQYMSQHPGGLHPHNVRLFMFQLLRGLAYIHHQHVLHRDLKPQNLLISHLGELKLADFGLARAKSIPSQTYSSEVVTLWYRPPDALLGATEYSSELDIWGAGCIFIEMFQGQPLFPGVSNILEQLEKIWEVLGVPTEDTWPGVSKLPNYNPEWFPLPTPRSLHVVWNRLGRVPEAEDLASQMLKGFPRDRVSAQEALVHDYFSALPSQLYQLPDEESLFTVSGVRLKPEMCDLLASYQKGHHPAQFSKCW
Chain of Macrophage colony-stimulating factor 1 receptor (Homo sapiens) (P07333 whole entry): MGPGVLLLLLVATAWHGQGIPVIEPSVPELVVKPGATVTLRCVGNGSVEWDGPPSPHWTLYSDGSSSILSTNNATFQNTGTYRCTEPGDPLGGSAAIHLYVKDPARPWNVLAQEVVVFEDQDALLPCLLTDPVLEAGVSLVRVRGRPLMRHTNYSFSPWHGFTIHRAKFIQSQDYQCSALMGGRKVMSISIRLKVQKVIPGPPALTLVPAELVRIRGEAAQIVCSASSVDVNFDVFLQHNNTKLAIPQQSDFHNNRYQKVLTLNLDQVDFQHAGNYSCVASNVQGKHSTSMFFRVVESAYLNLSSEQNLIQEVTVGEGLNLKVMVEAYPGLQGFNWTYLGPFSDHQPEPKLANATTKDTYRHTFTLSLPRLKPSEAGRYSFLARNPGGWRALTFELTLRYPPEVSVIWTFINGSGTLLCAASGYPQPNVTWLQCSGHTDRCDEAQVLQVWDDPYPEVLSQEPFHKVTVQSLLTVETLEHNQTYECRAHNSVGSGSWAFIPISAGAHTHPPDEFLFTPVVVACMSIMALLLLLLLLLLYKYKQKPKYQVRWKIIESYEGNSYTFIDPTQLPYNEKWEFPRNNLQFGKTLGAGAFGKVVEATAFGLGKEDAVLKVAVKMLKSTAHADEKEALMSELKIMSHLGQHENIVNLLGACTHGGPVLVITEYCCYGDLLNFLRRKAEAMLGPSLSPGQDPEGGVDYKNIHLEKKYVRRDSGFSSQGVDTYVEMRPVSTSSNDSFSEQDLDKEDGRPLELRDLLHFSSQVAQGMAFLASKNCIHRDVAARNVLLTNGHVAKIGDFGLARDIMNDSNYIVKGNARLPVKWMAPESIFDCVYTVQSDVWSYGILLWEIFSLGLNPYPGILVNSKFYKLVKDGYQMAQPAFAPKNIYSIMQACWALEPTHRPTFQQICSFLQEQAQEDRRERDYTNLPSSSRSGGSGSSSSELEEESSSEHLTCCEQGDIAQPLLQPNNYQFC
Chain of Serine/threonine-protein kinase 16 (O75716 whole entry): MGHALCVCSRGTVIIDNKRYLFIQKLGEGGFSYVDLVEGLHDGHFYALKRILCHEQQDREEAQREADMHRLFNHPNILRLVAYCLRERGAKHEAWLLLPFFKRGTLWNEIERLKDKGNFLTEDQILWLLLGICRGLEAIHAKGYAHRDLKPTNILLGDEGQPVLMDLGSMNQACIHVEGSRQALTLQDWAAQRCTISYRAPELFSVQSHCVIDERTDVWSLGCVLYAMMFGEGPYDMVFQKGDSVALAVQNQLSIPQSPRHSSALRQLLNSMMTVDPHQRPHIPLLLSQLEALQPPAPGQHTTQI

Regarding `N#Cc1cccc(-c2c[nH]c3ncnc(N4CCOCC4)c23)c1`, the % of control in [1] came out at 33%; in [2], 100%; in test [3], 71%. Consider `Cc1cc(F)c(C(=O)Nc2cccc(-c3nncn3C(C)C)n2)cc1-n1cnc(C2CC2)c1`, for which the % of control in test [4] is 100%. Consider `CNC(=O)Nc1ccc(-c2nc(N3CC4CCC(C3)O4)c3cnn(C4CCC5(CC4)OCCO5)c3n2)cc1`, for which the % of control in test [5] and in [6] was 100% in each case. Take `Cc1cc([C@@H](C)Nc2ccccc2C(=O)O)c2nc(N3CCOCC3)cc(=O)n2c1` [AZD-6482]: in test [7], the % of control worked out at 100%.

Take `Cc1cnc(Nc2ccc(F)cc2Cl)nc1-c1c[nH]c(C(=O)N[C@H](CO)c2cccc(Cl)c2)c1`: the % of inhibition in [8] was 2%; in test [9], 6%. As for `CC[C@@H]1[C@H](F)C(=O)N[C@@H]1COc1nccc2cc(C(N)=O)c(OC)cc12` [ZIMLOVISERTIB], the % of inhibition in test [10] is 2.54%. In [11], `CNCCN1CCC(c2cc(CN(C)C(=O)c3cccc(Oc4ccccc4)c3)ccn2)CC1` came in with a % activity of more than 90%. For `C=CC(=O)Nc1cc(-n2c(=O)ccc3cnc4ccc(-c5ccc(NS(C)(=O)=O)cc5)cc4c32)ccc1C`, the results for the % of control in [12] (at 1 µM) and in test [12] (at 10 µM) were 90% and 26%, respectively. `COc1cc(Nc2nc(C)cc(-c3cnn4nc(OC)ccc34)n2)cc(C(F)(F)F)c1` had a % of control in [13] of 73%. For `CCC(=O)N1CC[C@H](Nc2ncnc3c2CN(c2cnc(OC)c(C(F)(F)F)c2)CC3)C1` [LENIOLISIB], in test [14], the IC50 – broadly, the concentration that inhibits the measured activity by half – is more than 10 µM.

The values above are taken from ChEMBL document CHEMBL5465560, “Selectivity Literature for EUbOPEN Chemogenomic Library” (2024).
